Measured values: paper PMC5626944 (Frontiers in Pharmacology, 2017)
Like-named read-outs stand apart in the source and are kept apart here.

Key:
Sigma 1 = assay: NovaScreen competition binding; settings: 1 µM
[1] = tested on: Glutamate, Kainate Site (Ionotropic); assay: NovaScreen competition binding; settings: 1 µM
WT and α6L9′S mice = assay: Locomotor assay in a novel environment; assay type: in vivo, mouse; settings: 0.5 μmol/kg ip (nicotine 0.08 mg/kg, TC299423 0.09 mg/kg)
Description: Mice were habituated to the experimental room for 2 h prior to the experiment. Horizontal locomotor activity was recorded using an infrared photobeam activity cage system (San Diego Instruments; San Diego, CA, United States). After habituating to the experimental room, mice were placed singly in a novel cage. Ambulations were recorded when two contiguous photobeams were broken in succession, preventing activity from being recorded by most sedentary animals. Ambulation events were measured for 45 min with four 15 s intervals per min. Mice were given a total of two intraperitoneal (ip) injections. First, mice were pre-injected with saline or 1 mg/kg mecamylamine before being placed in the activity cages.

[2] = tested on: Norepinephrine Transporter; assay: NovaScreen competition binding; settings: 1 µM
α4β2* nAChRs = α4β2* nAChRs (Mus musculus, UniProt O70174+Q9ERK7); assay: biochemical; assay type: biochemical; settings: for Emax: relative to nicotine; for EC50: read-out: Neurotransmitter release EC50
Description: Regions of interest were dissected from fresh mouse brains and homogenized in ice-cold isotonic sucrose (0.32 M), buffered with HEPES (5 mM, pH 7.5). The suspension was centrifuged at 12,000 × g for 20 min.
Superfusion proceeded at 0.7 mL/min for 10 min before stimulation with agonist for 20 s. Selected aliquots were perfused with α-CtxMII (50 nM) for 3 min immediately before stimulation. […] Fractions (∼0.1 mL) were collected into 96-well plates at 10 s intervals for 4 min (starting ∼1 min before stimulation).

[3] = tested on: T1, Phosphodiesterase, PDE5A1 (h); assay: NovaScreen enzyme assay; assay type: biochemical, human; settings: 1 µM
T1 construct: PerkinElmer – Caliper Life Sciences (NovaScreen service)

Endothelin, ET-A (h) = tested on: T2, Endothelin, ET-A (h); assay: NovaScreen competition binding; design: species or system human; settings: 1 µM
T2 construct: PerkinElmer – Caliper Life Sciences (NovaScreen service)

Calcium Channel, Type N = assay: NovaScreen competition binding; settings: 1 µM
[4] = tested on: Nitric Oxide, NOS (Neuronal-Binding); assay: NovaScreen competition binding; settings: 1 µM
[5] = tested on: GABA, Chloride, TBOB Site; assay: NovaScreen competition binding; settings: 1 µM
Serotonin, 5HT7 (h) = assay: NovaScreen competition binding; design: species or system human; settings: 1 µM
[6] = tested on: Calcium Channel, Type L (Dihydropyridine Site); assay: NovaScreen competition binding; settings: 1 µM
Muscarinic, M3 (h) = assay: NovaScreen competition binding; design: species or system human; settings: 1 µM
Adrenergic, Beta 1 (h) = assay: NovaScreen competition binding; design: species or system human; settings: 1 µM
Angiotensin II, AT1 (h) = tested on: T3, Angiotensin II, AT1 (h); assay: NovaScreen competition binding; design: species or system human; settings: 1 µM
T3 construct: PerkinElmer – Caliper Life Sciences (NovaScreen service)

Adenosine, A2A (h) = tested on: T4, Adenosine, A2A (h); assay: NovaScreen competition binding; design: species or system human; settings: 1 µM
T4 construct: PerkinElmer – Caliper Life Sciences (NovaScreen service)

α3β4* nAChRs [7] = target: T5, α3β4* nAChRs (Mus musculus, UniProt Q8R493+Q8R4G9); assay: [125I]epibatidine binding, IPN membranes from β2KO mice
T5 construct: from tissue
Description: The methods used for preparing brain membranes in hypotonic buffer have been described previously ([Marks et al., 1998], [2007]). Brain membrane preparations were stored as pellets under buffer at -70°C or used immediately. We followed previously published methods for [^125I]epibatidine binding and analysis ([Grady et al., 2010]).

Serotonin, 5HT3 = tested on: T6, Serotonin, 5HT3; assay: NovaScreen competition binding; design: species or system mouse; settings: 1 µM
T6 construct: endogenous in cells; host or cells: N1E-115 (mouse neuroblastoma)
Description: Assays included the nicotinic drug [^3H]epibatidine binding to α-bungarotoxin-insensitive nAChRs, the 5-HT3 inhibitor [N-methyl-^3H]GR65630 to mouse receptors in N1E-115 cells, and human receptors expressed in a clonal cell line. Other assays included monoamine oxidase A, monoamine oxidase B, 5-HT transporter, norepinephrine transporter, and dopamine transporter, as well as other. G-protein-coupled receptors, ion channels, enzymes, and transporters.

Dopamine, D1 (h) = assay: NovaScreen competition binding; design: species or system human; settings: 1 µM
WT mice = assay: Marble burying assay; assay type: in vivo, mouse; settings: 0.3 mg/kg ip
Histamine, H3 = assay: NovaScreen competition binding; settings: 1 µM
α3β4* nAChRs [8] = target: T5, α3β4* nAChRs; assay: [3H]ACh release from interpeduncular nucleus synaptosomes; assay type: biochemical; settings: IPN synaptosomes
Description: Regions of interest were dissected from fresh mouse brains and homogenized in ice-cold isotonic sucrose (0.32 M), buffered with HEPES (5 mM, pH 7.5). The suspension was centrifuged at 12,000 × g for 20 min. The pellet was re-suspended in the appropriate uptake buffer ([Grady et al., 2001]; [Salminen et al., 2004]; [Marks et al., 2006]) and used immediately.
Previously published methods for [^3H]ACh release from crude IPN synaptosomes were followed ([Grady et al., 2001]). Agonist-stimulated ^86Rb^+ efflux from synaptosomes was measured using previously described methods ([Marks et al., 1999], [2007]).

T5 sequence (Q8R4G9 26-499): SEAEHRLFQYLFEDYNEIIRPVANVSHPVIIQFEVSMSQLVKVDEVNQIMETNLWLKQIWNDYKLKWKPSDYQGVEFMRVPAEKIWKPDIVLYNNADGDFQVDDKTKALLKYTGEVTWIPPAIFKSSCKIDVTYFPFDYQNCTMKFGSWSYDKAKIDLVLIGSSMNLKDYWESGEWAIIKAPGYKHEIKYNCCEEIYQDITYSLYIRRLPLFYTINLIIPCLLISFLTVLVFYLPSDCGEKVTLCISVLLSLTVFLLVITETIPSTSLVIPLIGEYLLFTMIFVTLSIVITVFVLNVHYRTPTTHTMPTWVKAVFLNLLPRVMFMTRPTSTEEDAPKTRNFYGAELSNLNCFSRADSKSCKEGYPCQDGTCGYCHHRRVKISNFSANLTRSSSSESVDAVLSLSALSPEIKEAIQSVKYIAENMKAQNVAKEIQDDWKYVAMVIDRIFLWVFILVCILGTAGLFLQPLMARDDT
T5 sequence (Q8R493 21-495): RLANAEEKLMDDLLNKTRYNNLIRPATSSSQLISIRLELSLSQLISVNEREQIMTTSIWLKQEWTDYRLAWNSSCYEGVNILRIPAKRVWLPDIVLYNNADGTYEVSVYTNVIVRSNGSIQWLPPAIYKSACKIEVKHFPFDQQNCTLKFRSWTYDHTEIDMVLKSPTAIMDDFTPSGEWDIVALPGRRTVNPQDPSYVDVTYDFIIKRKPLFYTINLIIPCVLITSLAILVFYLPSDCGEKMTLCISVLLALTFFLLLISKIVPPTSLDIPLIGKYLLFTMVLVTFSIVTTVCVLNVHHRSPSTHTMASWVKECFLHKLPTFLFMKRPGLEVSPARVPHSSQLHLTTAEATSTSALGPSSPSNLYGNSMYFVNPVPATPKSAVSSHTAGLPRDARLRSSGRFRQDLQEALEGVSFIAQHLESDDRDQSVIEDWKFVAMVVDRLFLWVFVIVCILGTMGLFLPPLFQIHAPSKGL
α4β2* nAChRs, sequence (O70174 31-629): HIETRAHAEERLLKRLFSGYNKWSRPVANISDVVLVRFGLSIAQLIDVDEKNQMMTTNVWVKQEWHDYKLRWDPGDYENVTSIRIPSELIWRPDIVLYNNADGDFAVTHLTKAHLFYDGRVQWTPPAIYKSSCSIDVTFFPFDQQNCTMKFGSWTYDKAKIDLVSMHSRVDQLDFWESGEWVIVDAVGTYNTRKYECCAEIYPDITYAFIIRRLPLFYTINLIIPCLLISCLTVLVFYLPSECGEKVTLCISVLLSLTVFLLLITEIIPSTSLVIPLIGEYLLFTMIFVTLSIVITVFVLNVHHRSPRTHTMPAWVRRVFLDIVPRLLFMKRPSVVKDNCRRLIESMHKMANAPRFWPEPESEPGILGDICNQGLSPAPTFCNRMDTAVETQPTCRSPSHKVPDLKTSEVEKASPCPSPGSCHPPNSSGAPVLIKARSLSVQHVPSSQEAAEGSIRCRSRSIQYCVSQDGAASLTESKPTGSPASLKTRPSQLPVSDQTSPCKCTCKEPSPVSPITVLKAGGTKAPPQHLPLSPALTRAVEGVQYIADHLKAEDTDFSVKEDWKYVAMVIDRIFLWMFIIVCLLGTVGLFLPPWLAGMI
α4β2* nAChRs, sequence (Q9ERK7 26-501): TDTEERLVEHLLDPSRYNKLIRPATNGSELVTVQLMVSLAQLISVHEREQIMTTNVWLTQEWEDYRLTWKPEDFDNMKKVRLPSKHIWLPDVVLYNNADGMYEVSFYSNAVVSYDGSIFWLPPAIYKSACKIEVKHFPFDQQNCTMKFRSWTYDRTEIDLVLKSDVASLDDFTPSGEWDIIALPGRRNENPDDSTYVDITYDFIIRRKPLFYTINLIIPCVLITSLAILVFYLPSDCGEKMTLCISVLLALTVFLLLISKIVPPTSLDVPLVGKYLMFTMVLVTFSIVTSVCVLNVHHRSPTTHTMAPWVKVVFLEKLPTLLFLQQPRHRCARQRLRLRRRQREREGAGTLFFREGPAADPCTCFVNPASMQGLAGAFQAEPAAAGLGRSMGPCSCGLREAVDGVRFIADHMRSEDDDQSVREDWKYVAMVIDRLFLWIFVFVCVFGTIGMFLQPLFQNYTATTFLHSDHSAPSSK

C1=C(/c2cncnc2)CCCNCC/1 [TC299423, (E)-5-(pyrimidin-5-yl)-1,2,3,4,7,8-hexahydroazocine]
Hit (Sigma 1): FALSE
Inhibition (Sigma 1; [3H]-(+)-Pentazocine): -0.52%
Hit [1]: FALSE
Inhibition ([1]; [3H]Kainic acid): -6.93%
Ambulatory activity in a novel environment (WT and α6L9′S mice; WT mice): Neither TC299423 nor nicotine affected WT ambulation
Ambulatory activity in a novel environment (WT and α6L9′S mice; α6L9′S mice): dramatically increased the ambulatory activity
Hit [2]: FALSE
Inhibition ([2]; [3H]Nisoxetine): 23.72%
Emax (α4β2* nAChRs; read-out: Neurotransmitter release % Efficacy, WT striatal synaptosomes, single component): 76 ± 5%
Emax (α4β2* nAChRs; read-out: Neurotransmitter release % Efficacy, α5KO striatal synaptosomes): 112 ± 9%
EC50 (α4β2* nAChRs; WT striatal synaptosomes, single component): 0.13 µM
EC50 (α4β2* nAChRs; α5KO striatal synaptosomes): 0.6 µM
Hit [3]: FALSE
Inhibition ([3]; substrate Fluorescent cyclic GMP): -3.00%
Hit (Endothelin, ET-A (h)): FALSE
Inhibition (Endothelin, ET-A (h); [125I] Endothelin-1): 8.93%
Hit (Calcium Channel, Type N): FALSE
Inhibition (Calcium Channel, Type N; [125I]-Conotoxin GVIA): -0.60%
Hit [4]: FALSE
Inhibition ([4]; [3H]NOARG): -10.86%
Hit [5]: FALSE
Inhibition ([5]; [3H]TBOB): 6.83%
Hit (Serotonin, 5HT7 (h)): FALSE
Inhibition (Serotonin, 5HT7 (h); [3H]LSD): -2.10%
Hit [6]: FALSE
Inhibition ([6]; [3H]Nitrendipine): -3.91%
Hit (Muscarinic, M3 (h)): FALSE
Inhibition (Muscarinic, M3 (h); [3H]Scopolamine, N-Methyl): -4.77%
Hit (Adrenergic, Beta 1 (h)): FALSE
Inhibition (Adrenergic, Beta 1 (h); [125I] (-) Iodocyanopindolol): 11.21%
Hit (Angiotensin II, AT1 (h)): FALSE
Inhibition (Angiotensin II, AT1 (h); [125I]-(Sar1-Ile8) Angiotensin): 24.85%
Hit (Adenosine, A2A (h)): FALSE
Inhibition (Adenosine, A2A (h); [3H]CGS 21680): 1.51%
Ki (α3β4* nAChRs [7]): 0.018 ± 0.0007 µM
Hit (Serotonin, 5HT3): FALSE
Inhibition (Serotonin, 5HT3; [3H]GR 65630): 7.50%
Hit (Dopamine, D1 (h)): FALSE
Inhibition (Dopamine, D1 (h); [3H]-SCH23390): -2.94%
Marbles buried compared with saline (WT mice): significantly fewer marbles
Marbles buried compared with varenicline (WT mice; p < 0.001): fewer marbles
Hit (Histamine, H3): FALSE
Inhibition (Histamine, H3; [3H]N-a-MeHistamine): 5.85%
EC50 (α3β4* nAChRs [8]; read-out: Neurotransmitter release EC50 (converted)): 8 µM
Emax (α3β4* nAChRs [8]; relative to nicotine, read-out: Neurotransmitter release % Efficacy): 100 ± 16%
